# Tests used:
# [1] = Inhibition of RSV RNA polymerase assessed as RNA products using […] template by SPA primer extension enzymatic assay; set-up: species or system Respiratory syncytial virus
# [2] = tested on: Respiratory syncytial virus; assay: Antiviral activity against Respiratory syncytial virus (RSV)-A2-eGFP infected in human HeLa cells assessed as eGFP expression measured after 3 days by RSV Cell-based infection assay; assay type: functional, organism-based; conditions: 72 h
# [3] = Cytotoxicity against human HeLa cells measured after 3 days by ATPlite kit assay; assay type: toxicity, cell-based; conditions: time 3 day
# [4] = tested on: Respiratory syncytial virus; assay: Antiviral activity against Respiratory syncytial virus (RSV) infected in human APC-126 cells assessed as replicon by measuring protein adjusted effective concentration in the presence of 40% human serum measured after 3 days by Renilla Glo assay; assay type: functional, organism-based; conditions: 72 h
# [5] = Metabolic stability in human liver microsomes assessed as intrinsic clearance; assay type: ADME, Microsome; conditions: read-out: CLH
# [6] = Metabolic stability in human hepatocytes assessed as intrinsic clearance per 10^6 cells at 1 uM measured upto 180 mins by LC-MS/MS analysis; assay type: ADME, cell-based, Hepatocyte; conditions: read-out: CLH
# [7] = Clearance in Sprague-Dawley rat at 1.25 mg/kg, iv; assay type: ADME, organism-based; conditions: in vivo
# [8] = tested on: Respiratory syncytial virus; assay: Antiviral activity against Respiratory syncytial virus (RSV) assessed as reduction in replicon RNA by Renilla Luciferase assay system; assay type: functional, organism-based; conditions: human respiratory syncytial virus
# [9] = Metabolic stability in human hepatocytes assessed as intrinsic clearance measured per 10^6 cells; assay type: ADME, cell-based, Hepatocyte; conditions: read-out: CLH
# [10] = Metabolic stability in rat hepatocytes assessed as intrinsic clearance measured per 10^6 cells; assay type: ADME, cell-based, Hepatocyte; conditions: read-out: CLH
# [11] = Metabolic stability in rat hepatocytes assessed as intrinsic clearance per 10^6 cells at 1 uM measured upto 180 mins by LC-MS/MS analysis; assay type: ADME, cell-based, Hepatocyte; conditions: read-out: CLH
# [12] = Inhibition of RSV RNA polymerase assessed as RNA products using […] template by Flashplate primer extension enzymatic assay; set-up: species or system Respiratory syncytial virus
# [13] = Drug recovery in bile duct cannulated rat bile measured for 48 hrs; assay type: ADME, tissue-based; conditions: read-out: Drug recovery
# [14] = Drug recovery in bile duct cannulated rat urine measured for 48 hrs; assay type: ADME, tissue-based; conditions: read-out: Drug recovery
IC50 [1] [nM],EC50 [2] [nM],EC50 [4] [nM],microsomal CLint [5] [µL/min/mg],hepatocyte CLint at 1 µM [6] [µL/min/1e6 cells],clearance [7] [mL/min/kg],EC50 [8] [nM],hepatocyte CLint [9] [µL/min/1e6 cells],hepatocyte CLint [10] [µL/min/1e6 cells],hepatocyte CLint at 1 µM [11] [µL/min/1e6 cells],IC50 [12] [nM],dose excreted at 48 h [13] [%],dose excreted at 48 h [14] [%],Structure (SMILES),CC50 at 72 h [3] [nM]
3.6,22,–,–,< 1.9,2.51,–,–,–,–,–,–,–,CC(=O)N[C@@]1(C)COc2c1cc([C@@](O)(CNC(=O)c1cc(OC3CC3)c3ncc(F)cc3c1)C(F)(F)F)nc2-c1ccc(F)cc1,14000
5.1,10,–,–,31,89,10,31,54,54,–,–,–,COc1cc(C(=O)NC[C@](O)(c2cc3c(c(-c4ccc(F)cc4)n2)OC[C@]3(C)N)C(F)(F)F)ccc1OC[C@@H](C)O,58400
0.52,1.4,–,–,12,67.3,–,–,–,72,–,–,–,COc1cc(C(=O)NC[C@](O)(c2cc3c(c(-c4ccc(F)cc4)n2)OC[C@]3(C)NS(C)(=O)=O)C(F)(F)F)cc2nc(N)sc12,13600
0.7,5.3,–,–,3,60.9,–,–,–,73,–,–,–,COc1cc(C(=O)NC[C@](O)(c2cc3c(c(-c4ccc(F)cc4)n2)OC[C@]3(C)NS(C)(=O)=O)C(F)(F)F)cc2cccnc12,10200
0.83,2.7,–,–,4.9,13.6,–,–,–,54,–,–,–,COc1cc(C(=O)NC[C@](O)(c2cc3c(c(-c4ccc(F)cc4)n2)OC[C@]3(C)NC(C)=O)C(F)(F)F)cc2cc(C)cnc12,14500
0.63,11,310,–,4.1,–,–,–,–,120,–,–,–,COc1cc(C(=O)NC[C@](O)(c2cc(C(C)(C)O)c(F)c(-c3ccc(F)cc3)n2)C(F)(F)F)cc2cccnc12,16000
23,14,–,–,–,–,–,–,–,13,–,–,–,COc1cc(C(=O)NC[C@](O)(c2cc3c(c(-c4ccc(F)cc4)n2)OC[C@]3(C)NC(C)=O)C(F)(F)F)ccc1OC[C@@H](C)O,73200
3.4,46,–,–,4.3,51.2,–,–,–,20,–,77,6,COc1cc(C(=O)NC[C@](O)(c2cc3c(c(-c4ccc(F)cc4)n2)OC[C@]3(C)NS(C)(=O)=O)C(F)(F)F)cn2cc(CO)nc12,> 90900
4.3,15,–,–,8.8,19,–,–,–,11,–,–,–,COc1cc(C(=O)NC[C@](O)(c2cc3c(c(-c4ccc(F)cc4)n2)OC[C@]3(C)NC(C)=O)C(F)(F)F)cc2cccnc12,12700
4.8,12,–,–,11,34,–,–,–,28,–,–,–,COc1cc(C(=O)NC[C@](O)(c2cc3c(c(-c4ccc(F)cc4)n2)OC[C@]3(C)NS(C)(=O)=O)C(F)(F)F)ccc1OC[C@@H](C)O,54300
3.7,19,–,–,< 1.9,6.13,–,–,–,11,–,–,–,CC(=O)N[C@@]1(C)COc2c1cc([C@@](O)(CNC(=O)c1cc(OC3CC3)c3ncccc3c1)C(F)(F)F)nc2-c1ccc(F)cc1,46800
0.36,1.3,–,–,3.7,–,–,–,–,–,–,–,–,COc1cc(C(=O)NC[C@](O)(c2cc3c(c(-c4ccc(F)cc4)n2)OC[C@]3(C)NS(C)(=O)=O)C(F)(F)F)cc2cc(C)cnc12,11400

# Continued, compound first:
Structure (SMILES),IC50 [1] [nM],EC50 [2] [nM],EC50 [4] [nM],microsomal CLint [5] [µL/min/mg],hepatocyte CLint at 1 µM [6] [µL/min/1e6 cells],clearance [7] [mL/min/kg],EC50 [8] [nM],hepatocyte CLint [9] [µL/min/1e6 cells],hepatocyte CLint [10] [µL/min/1e6 cells],hepatocyte CLint at 1 µM [11] [µL/min/1e6 cells],IC50 [12] [nM],dose excreted at 48 h [13] [%],dose excreted at 48 h [14] [%],CC50 at 72 h [3] [nM]
COc1cc(C(=O)NC[C@](O)(c2cc(C(C)(C)O)c(F)c(-c3ccc(F)cc3)n2)C(F)(F)F)cc2cc(C)c(C)nc12,0.96,8.6,61,> 347,–,–,–,–,–,–,–,–,–,18400
CCc1cc2cc(C(=O)NC[C@](O)(c3cc(C(C)(C)O)c(F)c(-c4ccc(F)cc4)n3)C(F)(F)F)cc(OC)c2nn1,0.37,3.2,41,–,14,–,–,–,–,–,–,–,–,21800
COc1cc(C(=O)NC[C@](O)(c2nc(-c3ccc(F)cc3)c(F)c(C(C)(C)O)c2F)C(F)(F)F)cc2cc(C)cnc12,0.25,2.6,–,–,9.7,–,–,–,–,–,–,–,–,43000
COc1cc(C(=O)NC[C@](O)(c2cc(C(C)(C)O)c(Cl)c(-c3ccc(F)cc3)n2)C(F)(F)F)cc2cc(C)cnc12,1.4,1.7,–,–,4.3,–,–,–,–,–,–,–,–,21700
COc1cc(C(=O)NC[C@](O)(c2cc(C(C)(C)O)c(F)c(-c3ccc(F)cc3)n2)C(F)(F)F)cc2cc(C)c(F)nc12,1.1,3.8,48,–,4.3,–,–,–,–,57,–,–,–,13100
COc1cc(C(=O)NC[C@](O)(c2cc(C(C)(C)O)c(F)c(-c3ccc(F)cc3)n2)C(F)(F)F)cc2cc(C(F)F)cnc12,–,3.6,97,–,< 1.9,–,–,–,–,19,1.7,–,–,13200
COc1cc(C(=O)NC[C@](O)(c2cc(C(C)(C)O)c(F)c(-c3ccc(F)cc3)n2)C(F)(F)F)cc2cc(C(F)F)nnc12,0.4,3.5,190,–,< 1.9,–,–,–,–,6.9,–,–,–,18300
COc1cc(C(=O)NC[C@](O)(c2cc(C(C)(C)O)c(F)c(-c3ccc(F)cc3)n2)C(F)(F)F)cc2cc(F)nnc12,1.31,6.8,330,–,< 1.9,–,–,–,–,93,–,–,–,17300
COc1cc(C(=O)NC[C@](O)(c2cc(C(C)(C)O)c(F)c(-c3ccc(F)cc3)n2)C(F)(F)F)cc2cc(OC(F)F)nnc12,0.91,5.1,1240,–,–,–,–,–,–,–,–,–,–,8900
COc1cc(C(=O)NC[C@](O)(c2cc(C(C)(C)O)c(F)c(-c3ccc(F)cc3)n2)C(F)(F)F)cc2cc(Cl)nnc12,0.22,1,110,–,< 1.2,–,–,–,–,13,–,–,–,9900
COc1cc(C(=O)NC[C@](O)(c2cc(C(C)(C)O)c(F)c(-c3ccc(F)cc3)n2)C(F)(F)F)cc2cc(C3CC3)cnc12,–,54,2170,–,< 1.9,–,–,–,–,–,2,–,–,12900
COc1cc(C(=O)NC[C@](O)(c2cc(C(C)(C)O)c(F)c(-c3ccc(F)cc3)n2)C(F)(F)F)cc2cc(C3CC3)nnc12,1.17,2.6,225,–,< 1.2,–,–,–,–,–,–,–,–,8800
COc1cc(C(=O)NC[C@](O)(c2cc(C(C)(C)O)c(F)c(-c3ccc(F)cc3)n2)C(F)(F)F)cc2cc(C)cnc12,0.42,4.5,43,–,6.6,–,–,–,–,28,–,–,–,14600
COc1nc2c(OC)cc(C(=O)NC[C@](O)(c3cc(C(C)(C)O)c(F)c(-c4ccc(F)cc4)n3)C(F)(F)F)cc2cc1C,1.52,34,1690,–,–,–,–,–,–,–,–,–,–,31000
COc1cc(C(=O)NC[C@](O)(c2cc(C(C)(C)O)c(F)c(-c3ccc(F)cc3)n2)C(F)(F)F)cc2cc(C(F)(F)F)cnc12,–,26,802,–,< 1.9,–,–,–,–,< 1.9,0.72,–,–,12600
COc1cc(C(=O)NC[C@](O)(c2nc(-c3ccc(F)cc3)c(Cl)c(C(C)(C)O)c2F)C(F)(F)F)cc2cc(C)cnc12,2.9,4.8,–,–,–,–,–,–,–,–,–,–,–,45800
COc1cc(C(=O)NC[C@](O)(c2cc(C(C)(C)O)c(F)c(-c3ccc(F)cc3)n2)C(F)(F)F)cc2cc(CF)cnc12,–,12.5,–,–,–,–,–,–,–,–,3.82,–,–,39800

# Reference: ChEMBL document CHEMBL5550217, “Discovery of gem-Dimethyl-hydroxymethylpyridine Derivatives as Potent Non-nucleoside RSV Polymerase Inhibitors” (J Med Chem, 2024)
